Data taken from patent publication US8163929B2, “Dihydropyridone amides as P2X7 modulators” (Roche Palo Alto LLC, priority 2008, dated 2012).

Molecular target: T1, P2X7 (UniProt Q99572)
T1 sequence (Q99572 1-595): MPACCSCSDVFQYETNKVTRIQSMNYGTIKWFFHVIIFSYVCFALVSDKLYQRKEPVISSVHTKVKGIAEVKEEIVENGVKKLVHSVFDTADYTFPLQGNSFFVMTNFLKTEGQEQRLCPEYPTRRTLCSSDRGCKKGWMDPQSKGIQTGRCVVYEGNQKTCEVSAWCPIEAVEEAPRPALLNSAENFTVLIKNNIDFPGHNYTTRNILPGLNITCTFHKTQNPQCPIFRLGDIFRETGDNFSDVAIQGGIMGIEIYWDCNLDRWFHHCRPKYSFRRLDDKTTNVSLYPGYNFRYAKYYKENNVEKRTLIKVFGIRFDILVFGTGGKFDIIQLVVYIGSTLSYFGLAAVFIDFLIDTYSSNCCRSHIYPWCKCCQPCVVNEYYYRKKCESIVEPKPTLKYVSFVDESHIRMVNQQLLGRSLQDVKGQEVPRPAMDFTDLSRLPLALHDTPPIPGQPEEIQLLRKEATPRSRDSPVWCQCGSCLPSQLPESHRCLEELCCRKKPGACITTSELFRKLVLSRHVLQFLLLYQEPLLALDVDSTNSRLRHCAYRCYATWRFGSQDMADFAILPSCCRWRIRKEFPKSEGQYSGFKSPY
Assay: P2X7 activity of Table 1
Assay type: cell-based
Conditions: pIC50 values for P2X7
Method: Stock solutions of compounds were prepared from powders as a 10 mM DMSO stock solution. These solutions were stored at RT during the two week period of these experiments to prevent freeze-thaw of the DMSO stocks. The DMSO stocks were added to the appropriate assay buffer at a concentration of 10 μM, and then diluted serially to the final concentrations that were tested. […] The aqueous solutions of compounds as well as ATP (Sigma A7699) and BzATP (Sigma B6396) were prepared fresh for each day of experiment.
1321N1 cells stably expressing the full length human P2X7 gene (1321N1-hP2X7) and HEK293 cells stably expressing the full length rat P2X7 gene (HEK293-rP2X7) were obtained from the Roche Cell Culture Facility. 1321N1-hP2X7 cells were grown in Dulbecco's Modified Eagle's Medium (DMEM) high glucose supplemented with 10% FBS and 250 μg/mL G418. HEK293-rP2X7 cells were grown in DMEM/F-12 supplemented with 10% FBS, 1 mM CaCl2, 2 mM MgCl2, 2 mM L-Glutamine and 500 μg/ml G418. Cells were split such that they never became >70% confluent.
On the day prior to the experiment, 1321N1-hP2X7 or HEK293-rP2X7 cells were released into suspension with calcium-free PBS+Versene and washed by centrifugation with calcium-free PBS to remove the Versene. Cells were resuspended in growth medium at a density of 2.5×10^5 cells/mL and seeded into black walled, clear bottom 96 well plates (50,000 cells/well) approximately 18 hr prior to intracellular calcium flux experiments.
On the day of the experiment, plates were washed with FLIPR buffer (calcium- and magnesium-free Hank's Balanced Salt Solution (HBSS) supplemented with 10 mM Hepes, 2.5 mM probenecid and 2 mM calcium chloride) using a BIO-TEK 96 channel plate washer and incubated with […] fluo-3 dye at 37° C. for one hr. The dye was then removed by plate washing and the cells were allowed to equilibrate for 20 min at room temperature with antagonist or vehicle (FLIPR buffer). Agonist (100 μM BzATP final concentration for hP2X7; 5 μM BzATP final concentration or rP2X7) was added online with the FLIPR and fluorescence measurements made at 1 sec intervals for 60 sec followed by 3 sec intervals for a further 4 min (5 min total). A final addition of 5 μM ionomycin was made and the maximal BzATP-evoked fluorescence normalized to the maximal ionomycin-evoked fluorescence.

SMILES | pIC50
Cc1cc(-c2ccc(C)c(NC(=O)C3=CNC(=O)C[C@H]3c3ccc(F)cc3)c2)on1 [Compound 26, (S)-4-(4-Fluoro-phenyl)-6-oxo-1,4,5,6-tetrahydro-pyridine-3-carboxylic acid [2-methyl-5-(3-methyl-isoxazol-5-yl)-phenyl]-amide] | 7.265
Cc1ncn(-c2ccc(C)c(NC(=O)C3=CNC(=O)C[C@H]3c3ccc(F)cc3)c2)n1 [Compound 27, (S)-4-(4-Fluoro-phenyl)-6-oxo-1,4,5,6-tetrahydro-pyridine-3-carboxylic acid [2-methyl-5-(3-methyl-[1,2,4]triazol-1-yl)-phenyl]-amide] | 6.28
Cc1cn(-c2ccc(C)c(NC(=O)C3=CNC(=O)C[C@H]3c3ccc(F)cc3)c2)nn1 [Compound 28, (S)-4-(4-Fluoro-phenyl)-6-oxo-1,4,5,6-tetrahydro-pyridine-3-carboxylic acid [2-methyl-5-(4-methyl-[1,2,3]triazol-1-yl)-phenyl]-amide] | 7.145
Cc1cnn(-c2ccc(C)c(NC(=O)C3=CNC(=O)C[C@H]3c3ccc(F)cc3)c2)c1 [Compound 29, (S)-4-(4-Fluoro-phenyl)-6-oxo-1,4,5,6-tetrahydro-pyridine-3-carboxylic acid [2-methyl-5-(4-methyl-pyrazol-1-yl)-phenyl]-amide] | 7.99
Cc1nnc(-c2ccc(C)c(NC(=O)C3=CNC(=O)C[C@H]3c3ccc(F)cc3)c2)o1 [Compound 30, (S)-4-(4-Fluoro-phenyl)-6-oxo-1,4,5,6-tetrahydro-pyridine-3-carboxylic acid [2-methyl-5-(5-methyl-[1,3,4]oxadiazol-2-yl)-phenyl]-amide] | 6.275
Cc1cc(-c2ccc(C)c(NC(=O)C3=CN(C)C(=O)C[C@H]3c3ccc(F)cc3)c2)n[nH]1 [Compound 31, (S)-4-(4-Fluoro-phenyl)-1-methyl-6-oxo-1,4,5,6-tetrahydro-pyridine-3-carboxylic acid [2-methyl-5-(5-methyl-1H-pyrazol-3-yl)-phenyl]-amide] | 7.35
CCCn1nccc1-c1ccc(C)c(NC(=O)C2=CNC(=O)C[C@H]2c2ccc(F)cc2)c1 [Compound 32, (S)-4-(4-Fluoro-phenyl)-6-oxo-1,4,5,6-tetrahydro-pyridine-3-carboxylic acid [2-methyl-5-(2-propyl-2H-pyrazol-3-yl)-phenyl]-amide] | 6.885
Cc1cc(-c2ccc(Cl)c(NC(=O)C3=CNC(=O)C[C@H]3c3ccc(F)cc3)c2)n[nH]1 [Compound 33, (S)-4-(4-Fluoro-phenyl)-6-oxo-1,4,5,6-tetrahydro-pyridine-3-carboxylic acid [2-chloro-5-(5-methyl-1H-pyrazol-3-yl)-phenyl]-amide] | 7.4067
Cc1ccc(-c2nnc(C)n2C)cc1NC(=O)C1=CNC(=O)C[C@H]1c1ccc(F)cc1 [Compound 34, (S)-4-(4-Fluoro-phenyl)-6-oxo-1,4,5,6-tetrahydro-pyridine-3-carboxylic acid [5-(4,5-dimethyl-4H-[1,2,4]triazol-3-yl)-2-methyl-phenyl]-amide] | 7.78
Cc1cc(Cl)c(CN2CCOC2=O)cc1NC(=O)C1=CNC(=O)C[C@H]1c1ccc(F)cc1 [Compound 35, (S)-4-(4-Fluoro-phenyl)-6-oxo-1,4,5,6-tetrahydro-pyridine-3-carboxylic acid [4-chloro-2-methyl-5-(2-oxo-oxazolidin-3-ylmethyl)-phenyl]-amide] | 8.135
Cc1cc(-c2cc(NC(=O)C3=CNC(=O)C[C@H]3c3ccc(F)cc3)ccc2Cl)n[nH]1 [Compound 36, (S)-4-(4-Fluoro-phenyl)-6-oxo-1,4,5,6-tetrahydro-pyridine-3-carboxylic acid [4-chloro-3-(5-methyl-1H-pyrazol-3-yl)-phenyl]-amide] | 5.92
Cc1ccc(-n2ncc(=O)n(C)c2=O)cc1NC(=O)C1=CNC(=O)C[C@H]1c1ccc(F)cc1 [Compound 37, (S)-4-(4-Fluoro-phenyl)-6-oxo-1,4,5,6-tetrahydro-pyridine-3-carboxylic acid [2-methyl-5-(4-methyl-3,5-dioxo-4,5-dihydro-3H-[1,2,4]triazin-2-yl)-phenyl]-amide] | 7.76
Cc1ccc(-c2cc(C)n(CCO)n2)cc1NC(=O)C1=CN(C)C(=O)C[C@H]1c1ccc(F)cc1 [Compound 38, (S)-4-(4-Fluoro-phenyl)-1-methyl-6-oxo-1,4,5,6-tetrahydro-pyridine-3-carboxylic acid {5-[1-(2-hydroxy-ethyl)-5-methyl-1H-pyrazol-3-yl]-2-methyl-phenyl}-amide] | 7.46
Cc1ccc(-n2ncc(=O)n(CCO)c2=O)cc1NC(=O)C1=CNC(=O)C[C@H]1c1ccc(F)cc1 [Compound 39, (S)-4-(4-Fluoro-phenyl)-6-oxo-1,4,5,6-tetrahydro-pyridine-3-carboxylic acid {5-[4-(2-hydroxy-ethyl)-3,5-dioxo-4,5-dihydro-3H-[1,2,4]triazin-2-yl]-2-methyl-phenyl}-amide] | 7.76
Cc1cc(-c2ccc(C)c(NC(=O)C3=CNC(=O)C[C@H]3c3ccc(F)cc3)c2)no1 [Compound 40, (S)-4-(4-Fluoro-phenyl)-6-oxo-1,4,5,6-tetrahydro-pyridine-3-carboxylic acid [2-methyl-5-(5-methyl-isoxazol-3-yl)-phenyl]-amide] | 7.183
Cc1cc(-c2cc(NC(=O)C3=CNC(=O)C[C@H]3c3ccc(F)cc3)c(C)cc2F)n[nH]1 [Compound 41, (S)-4-(4-Fluoro-phenyl)-6-oxo-1,4,5,6-tetrahydro-pyridine-3-carboxylic acid [4-fluoro-2-methyl-5-(5-methyl-1H-pyrazol-3-yl)-phenyl]-amide] | 8.048
COCCn1nc(-c2ccc(C)c(NC(=O)C3=CNC(=O)C[C@H]3c3ccc(F)cc3)c2)cc1C [Compound 42, (S)-4-(4-Fluoro-phenyl)-6-oxo-1,4,5,6-tetrahydro-pyridine-3-carboxylic acid {5-[1-(2-methoxy-ethyl)-5-methyl-1H-pyrazol-3-yl]-2-methyl-phenyl}-amide] | 7.3
Cc1ccc(-c2cnccn2)cc1NC(=O)C1=CNC(=O)C[C@H]1c1ccc(F)cc1 [Compound 43, (S)-4-(4-Fluoro-phenyl)-6-oxo-1,4,5,6-tetrahydro-pyridine-3-carboyxlic acid (2-methyl-5-pyrazin-2-yl-phenyl)-amide] | 7.54
Cc1ccc(-c2ccc(C)c(NC(=O)C3=CNC(=O)C[C@H]3c3ccc(F)cc3)c2)nn1 [Compound 44, (S)-4-(4-Fluoro-phenyl)-6-oxo-1,4,5,6-tetrahydro-pyridine-3-carboxylic acid [2-methyl-5-(6-methyl-pyridazin-3-yl)-phenyl]-amide] | 7.567
Cc1cnc(-c2ccc(C)c(NC(=O)C3=CNC(=O)C[C@H]3c3ccc(F)cc3)c2)cn1 [Compound 45, (S)-4-(4-Fluoro-phenyl)-6-oxo-1,4,5,6-tetrahydro-pyridine-3-carboxylic acid [2-methyl-5-(5-methyl-pyrazin-2-yl)-phenyl]-amide] | 7.01
Cc1ccc(N2CCCC2)cc1NC(=O)C1=CNC(=O)C[C@H]1c1ccc(F)cc1 [Compound 46, (S)-4-(4-Fluoro-phenyl)-6-oxo-1,4,5,6-tetrahydro-pyridine-3-carboxylic acid (2-methyl-5-pyrrolidin-1-yl-phenyl)-amide] | 7.873
Cc1ccc(N2CCOCC2)cc1NC(=O)C1=CNC(=O)C[C@H]1c1ccc(F)cc1 [Compound 47, (S)-4-(4-Fluoro-phenyl)-6-oxo-1,4,5,6-tetrahydro-pyridine-3-carboxylic acid (2-methyl-5-morpholin-4-yl-phenyl)-amide] | 6.3
